Data published in PMC7088215 (The Protein Journal, 2015).

Key:
SaPriA (PriA helicase) [1] = biological target: T1, SaPriA (PriA helicase) (Staphylococcus aureus, UniProt Q2G266); assay: vanadate-sensitive colorimetric ATPase assay, single concentration of […]; type: biochemical; details: read-out: %
T1 sequence (Q2G266 1-802): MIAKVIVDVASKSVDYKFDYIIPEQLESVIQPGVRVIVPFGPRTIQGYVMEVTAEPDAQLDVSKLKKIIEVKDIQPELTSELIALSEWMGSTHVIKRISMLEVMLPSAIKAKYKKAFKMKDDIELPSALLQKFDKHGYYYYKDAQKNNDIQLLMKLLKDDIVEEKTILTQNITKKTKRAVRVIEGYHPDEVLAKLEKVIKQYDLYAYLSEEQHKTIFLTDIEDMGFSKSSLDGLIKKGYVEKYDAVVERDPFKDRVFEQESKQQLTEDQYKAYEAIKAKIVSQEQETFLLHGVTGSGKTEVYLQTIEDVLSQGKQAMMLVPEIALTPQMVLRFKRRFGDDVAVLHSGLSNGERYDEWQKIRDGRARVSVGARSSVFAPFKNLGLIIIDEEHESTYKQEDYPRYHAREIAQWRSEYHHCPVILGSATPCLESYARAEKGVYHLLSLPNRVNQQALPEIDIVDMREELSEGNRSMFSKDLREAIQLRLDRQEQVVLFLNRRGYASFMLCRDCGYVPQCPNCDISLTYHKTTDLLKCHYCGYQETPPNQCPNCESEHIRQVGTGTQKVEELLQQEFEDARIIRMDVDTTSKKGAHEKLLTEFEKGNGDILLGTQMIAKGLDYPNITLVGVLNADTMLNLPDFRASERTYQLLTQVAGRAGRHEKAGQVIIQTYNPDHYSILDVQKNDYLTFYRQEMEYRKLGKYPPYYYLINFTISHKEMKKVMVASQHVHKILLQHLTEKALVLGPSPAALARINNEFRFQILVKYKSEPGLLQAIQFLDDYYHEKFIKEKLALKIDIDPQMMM

SaPriA (PriA helicase) [2] = biological target: T1, SaPriA (PriA helicase); assay: intrinsic fluorescence quenching titration of purified SaPriA; type: binding

| Structure (SMILES) | activity at 35 µM (SaPriA (PriA helicase) [1]) [%] | Kd (SaPriA (PriA helicase) [2]) [µM] |
| --- | --- | --- |
| O=c1c(O)c(-c2cc(O)c(O)c(O)c2)oc2cc(O)cc(O)c12 [myricetin] | 69 | – |
| O=c1c(O)c(-c2ccc(O)cc2)oc2cc(O)cc(O)c12 [kaempferol] | – | 9.1 ± 3.2 |
